Assay results published in US9187458B2, “Cyanoquinoline derivatives” (Tianjin Hemay Bio-Tech Co., LTD., priority 2010, dated 2015).
Structures can show the parent of a compound that is named as a salt.

Columns and labels:
A431 cells = experiment: A431 Cell Growth Inhibition Test (MTT Assay); type: cell-based, human; details: Homo sapiens, A-431, 68 h, compound 1 μM, 68 h incubation, read-out: Growth Inhibition Ratio (%)
Method: A431 Cell Growth Inhibition Test (MTT Assay)
1. Cell strains: A431 (human epithelial […] cell strains);
Culture medium: 45% DMEM, 45% F12+10% FBS;
(§1) 1. A plate (10 cm) of cells in logarithmic growth phase normally cultured was collected;
(§2) 2. The culture solution was sucked out. The plate was washed with 5 ml of PBS 1-2 times;
3. PBS was sucked out, and 2 ml of 0.25% pancreatin was added to infiltrate the cells for 1 min;
4. The pancreatin was sucked out, and the culture plate was placed in an incubator. Digestion was carried out for about 15 min at 37° C.;
5. 4 ml of complete culture solution was added in the culture plate to stop the digestion. The cells were carefully scoured with micropipette (1 ml) to give a uniform cell suspension. The suspension was implanted into a 96-well cell culture plate by 2500 cells/100 μl per well. The culture plate was incubated overnight under 5% CO2 at 37° C. In day 2, 100 μl of culture solution comprising the compound was added in each well, and further incubated for 68 h under 5% CO2 at 37° C.
(§3) 6. The culture solution was sucked out;
7. 100 μl of serum-free culture solution containing 0.5 mg/ml MTT was added in each well, and incubated for 4 h;
(§4) 8. The culture solution was carefully sucked out;
9. 100 μl of DMSO was added into each well and vibrated to dissolve;
(§5) 10. OD values were determined at 490 nM.
(§6) 1. Calculation of Relative Inhibition Ratio The inhibition ratio of a compound on cell growth=(PC−n)/(PC−NC)×100%
IC50: concentration of a compound where inhibition ratio was 50%. IC50 values were fitted with Origin7.5.

BT-474 cells = experiment: BT-474 Cell Growth Inhibition Test (SRB Assay); type: cell-based, human; details: Homo sapiens, BT-474, 70 h, compound 1 μM, 70 h incubation, read-out: Growth Inhibition Ratio (%)
Method: BT-474 Cell Growth Inhibition Test (SRB Assay)
1. Cell strains: BT-474 (human breast tumor cell strains);
2. SRB: available from Sigmaaldrich, goods number: S9012, lot number: 047K3751. SRB was reserved at the room temperature. 0.4% (w/v) of working solution was formulated with 1% of glacial acetic acid. The solution was reserved at the temperature of 4° C.; anti-tumor compounds; DMSO.
Culture medium (90% EMEM+10% FBS+0.1 mM NEAA, reserved at 4° C.);
1. A plate (10 cm) of cells in logarithmic growth phase normally cultured was collected. The culture solution was sucked out. The plate was washed with 5 mL of PBS 1-2 times;
2. PBS was sucked out, and […] of 0.25% pancreatin was added to infiltrate the cells for 30 s;
3. The pancreatin was sucked out. The culture plate was pleaced in an incubator. Digestion was carried out for about 5 min at 37° C.;
4. 3 mL of complete culture solution was added to the culture plate to stop the digestion. The cells were carefully scoured with micropipette (1 ml) to give a uniform single cell suspension;
5. Cell suspension was counted. The suspension was diluted to 1×10^5/ml. The resulting suspension was developed uniformly on a plate. The plate was incubated under 5% CO2 at 37° C. overnight. In day 2, 80 μL of complete culture medium was added in each well and then 20 μL of culture solution comprising a compound was added. The mixture was incubated for 70 h under 5% CO2 at 37° C.
(§7) 6. The culture solution was sucked out. 100 uL of TCA fixed cells which were diluted to 10% were added to each well. The plate was kept in a refrigerator for 1 h at 4° C.
(§8) 7. TCA stationary liquid was sucked out. Each well was washed with 150 μL of ddH2O five times;
(§9) 8. After the stationary liquid was cleansed, the plate was dried in the air at the room temperature;
(§10) 9. 60 μL of SRB staining solution was added in each well. The well was stained for 15 min at the room temperature;
(§11) 10. The SRB staining solution was sucked out. Each well was washed with 150 μL of 1% glacial acetic acid five times;
(§12) 11. After the SRB staining solution was cleansed, the plate was dried in the air at the room temperature;
12. 100 μL of 10 mM Tris was added in each well. The plate was vibrated to dissolve out SRB;
(§13) 13. OD values were determined at 570 nM.
as §6
(§14) IC50: Concentration of a compound where inhibition ratio was 50%. IC50 values were fitted with Origin7.5.

CCRF-CEM/T cells = experiment: CCRF-CEM/T Cell Growth Inhibition Test (MTT Assay); type: cell-based; details: Homo sapiens, CCRF-CEM/T cells (resistant to paclitaxel), 72 h incubation
Method: CCRF-CEM/T Cell Growth Inhibition Test (MTT Assay)
Cell strains: CCRF-CEM/T (human acute lymphocytic cell leukemia cells);
triple lysate solution: 10% SDS, 5% isobutanol, 0.012M HCl.
1. Cells were cultured to exponential phase. The cells were suspension cells;
2. The cells were collected by centrifuge. The resulting cells were resuspended in a complete culture medium to a desired concentration. The cells suspension was implanted into a 96-well cell culture plate by 20000 cells per well. A compound was added in the wellsuch that the final volume of the system was 120 μl. The system was further incubated for 72 h under 5% CO2 at 37° C.
7. 30 μl of serum-free culture solution containing 2.5 mg/ml MTT was added in each well, and incubated for 3 h;
8. 150 μl of triple lysate solution was added in each well and placed to dissolve at the room temperature;
9. OD values were determined at 570 nM.
as §6, §14

Fadu cells = experiment: Fadu Cell Growth Inhibition Test (MTT Assay); type: cell-based; details: Homo sapiens, 72 h incubation
Method: Fadu Cell Growth Inhibition Test (MTT Assay)
Cell strains: Fudu (human head and neck cancer cell strains);
Culture medium: 90% EMEM+10% FBS;
as §1, §2
(§15) 3. PBS was sucked out. 1.5 ml of 0.25% pancreatin was added to infiltrate the cells for 1 min;
4. The pancreatin was sucked out. The culture plate was placed in an incubator. Digestion was carried out for about 5 min at 37° C.;
5. 4.5 ml of complete culture solution was added to the culture plate to stop the digestion. The cells were carefully scoured with micropipette (1 ml) to give a uniform cell suspension. The suspension was implanted into a 96-well cell culture plate by 6000 cells/100 μl per well. The culture plate was incubated overnight under 5% CO2 at 37° C. In day 2, 100 μl of culture solution comprising a compound was added in each well, and further incubated for 72 h under 5% CO2 at 37° C.
as §3
(§16) 7. 100 μl of serum-free culture solution containing 0.5 mg/ml MTT was added in each well, and incubated for 3 h;
as §4
(§17) 9. 100 μl of DMSO was added in each welland vibrated to dissolve;
as §5, §6, §14

AsPC-1 cells = experiment: AsPC-1 Cell Growth Inhibition Test (MTT Assay); type: cell-based; details: Homo sapiens, ASPC1, 72 h incubation
Method: AsPC-1 Cell Growth Inhibition Test (MTT Assay)
Cell strains: AsPC-1 (human pancreatic cancer cell strains);
as §1, §2, §15
4. The pancreatin was sucked out. The culture plate was placed in an incubator. Digestion was carried out for about 7.5 min at 37° C.;
5. 4.5 ml of complete culture solution was added to the culture plate to stop the digestion. The cells were carefully scoured with micropipette (1 ml) to give a uniform cell suspension. The suspension was implanted into a 96-well cell culture plate by 8000 cells/100 μl per well. The culture plate was incubated overnight under 5% CO2 at 37° C. In day 2, 100 μl of culture solution comprising a compound was added in each well, and further incubated for 72 h under 5% CO2 at 37° C.
as §3, §16, §4, §17, §5, §6, §14

NCI-H1650 cells = experiment: NCI-H1650 Cell Growth Inhibition Test (SRB Assay); type: cell-based; details: Homo sapiens, 72 h incubation
Method: NCI-H1650 Cell Growth Inhibition Test (SRB Assay)
1. Cell strains: NCI-H1650 (human non-small cell lung cancer cell strains);
2. SRB, 0.4% (w/v) working solution was formulated with 1% glacial acetic acid and reserved at 4° C.; antitumor compounds; DMSO
as §1
2. The culture solution was sucked out. The plate was washed with 5 mL of PBS 1-2 times;
3. 1.5 mL of 0.25% pancreatin was added to the plate to infiltrate the cells;
4. The pancreatin was sucked out. The culture plate was placed in an incubator. Digestion was carried out for about 3 min at 37° C.;
5. 4 mL of complete culture solution was added to the culture plate to stop the digestion. The cells were carefully scoured with micropipette (1 ml) to give a uniform single cell suspension. The suspensin was implanted into a 96-well cell culture plate by 6000 cells/100 μl per well. The culture plate was incubated overnight under 5% CO2 at 37° C. In day 2, 100 μl of culture solution comprising a compound was added in each well, and further incubated for 72 h under 5% CO2 at 37° C.;
as §7, §8, §9, §10, §11, §12
12. 100 μL of 10 mM Tris was added in each well, the plate was vibrated to dissolve out SRB;
as §13, §6, §14

NCI-H460 cells = experiment: NCI-H460 Cell Growth Inhibition Test (MTT Assay); type: cell-based; details: Homo sapiens, 72 h incubation
Method: NCI-H460 Cell Growth Inhibition Test (MTT Assay)
1. Cell strains: NCI-H460 (human large cell lung cancer cell strains);
as §1, §2
3. PBS was sucked out. 2 ml of 0.25% pancreatin was added to infiltrate the cells for 1 min;
4. The pancreatin was sucked out. The culture plate was placed in an incubator. Digestion was carried out for about 2 min at 37° C.;
5. 4 ml of complete culture solution was added to the culture plate to stop the digestion. The cells were carefully scoured with micropipette (1 ml) to give a uniform cell suspension. The suspension was implanted into a 96-well cell culture plate by 2500 cells/100 μl per well. The culture plate was incubated overnight under 5% CO2 at 37° C. In day 2, 100 μl of culture solution comprising a compound was added in each well, and further incubated for 72 h under 5% CO2 at 37° C.
as §3, §16, §4
9. 100 μl of DMSO was added in each well and vibrated to dissolve;
as §5, §6, §14

EGFR-TK = molecular target: T1, EGFR-TK (Homo sapiens, UniProt P00533); experiment: Inhibition Test on EGFR-TK (ELISA, PGT substrate); type: biochemical; details: 20 min at room temperature, read-out: Inhibition Activity (EC50) on EGFR-TK phosphorylation
T1 construct: EGFR-TK: intracellular epidermal growth factor receptor phosphorylase
T1 sequence (P00533 669-1210 limits assumed): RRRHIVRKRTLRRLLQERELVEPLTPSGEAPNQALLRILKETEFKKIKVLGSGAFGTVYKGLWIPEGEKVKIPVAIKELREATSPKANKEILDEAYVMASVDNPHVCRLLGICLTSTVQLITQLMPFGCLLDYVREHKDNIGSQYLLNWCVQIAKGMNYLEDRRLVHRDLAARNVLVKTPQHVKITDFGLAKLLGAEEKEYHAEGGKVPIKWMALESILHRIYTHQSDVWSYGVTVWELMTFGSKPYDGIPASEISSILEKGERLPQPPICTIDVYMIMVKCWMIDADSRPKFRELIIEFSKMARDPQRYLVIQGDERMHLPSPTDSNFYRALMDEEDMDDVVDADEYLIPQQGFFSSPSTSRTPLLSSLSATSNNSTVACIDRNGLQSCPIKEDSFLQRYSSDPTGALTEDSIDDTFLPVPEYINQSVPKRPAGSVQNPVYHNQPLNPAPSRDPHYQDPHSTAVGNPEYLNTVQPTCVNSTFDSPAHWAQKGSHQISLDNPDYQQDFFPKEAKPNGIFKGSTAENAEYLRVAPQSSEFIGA
Method: Inhibition Test on EGFR-TK
1. 2 mg/ml of PGT was diluted with PBS to 0.2 mg/ml. The resulting solution was added into elisa plate by 50 μl per well. The plate was placed in a refrigerator at 4° C. and coated overnight.
2. The coating solution was discarded to stop coating. The plate was washed three times with PBS, and then beaten to dryness.
3. The elisa plate was placed in a refrigerator at 4° C., drained out and stood for 2h.
4. The mother liquid of aqueous solution of each compound was diluted with double distilled water to four folds, i.e. a desirable concentration. Then, the compound was diluted and added in the corresponding elisa well by 25 μl/well.
5. […] of ATP solution was diluted with double distilled water to 50 folds and then sufficiently mixed. The resulting solution was separately added in each elisa well by 25 μl per well (except for the negative control).
6. EGFR kinase was diluted with 2×TKB to 800 folds. The solution was added in elisa well with 50 μl per well. Then, the enzyme reaction began. The elisa plate was immediately placed on a micro-oscillator and shaked to react for 20 min at the room temperature.
7. 2% of SDS was added in the elisa well to stop the reaction by adding 100 μl of SDS into each well. The solution was sufficiently mixed on the micro-oscillator to sufficiently mix for about 5 min.
8. The reaction solution was sucked out. The plate was washed four times with PBST. After the plate was beaten to dryness, 0.25 μg/ml of mice anti-phosphorylation tyrosine-HRP antibody which was diluted with blocking solution (3% solution of BSA in PBST) was added in the plate by 100 μl per well. The mixture was reacted for 30 min at the room temperature.
9. The antibody reaction solution was sucked out. The plate was washed four times with PBST. After the plate was beated to dryness, TMB peroxidase substrate was added to the plate by 100 μl/well. The mixture reacted in the dark for 15 min at the room temperature.
10. 100 μl of 2N H2SO4 was added in the plate to stop the chromogenic reaction. After the bubbles were cleansed, OD values were determined in ELIASA at 450 nm.
11. Formula for calculating inhibition percentage: […]

| Compound | inhibition at 1 µM (A431 cells) | inhibition at 1 µM (BT-474 cells) | IC50 (CCRF-CEM/T cells) | IC50 (Fadu cells) | IC50 (AsPC-1 cells) | IC50 (NCI-H1650 cells) | IC50 (NCI-H460 cells) | EC50 (EGFR-TK) |
| --- | --- | --- | --- | --- | --- | --- | --- | --- |
| CN(C)C/C=C/C(=O)Nc1cc2c(Nc3ccc(OCc4cccc(F)c4)c(Cl)c3)c(C#N)cnc2cc1O[C@H]1CCOC1 [Example 158, (S,E)-N-(4-(4-(3-FLUOROBENZYLOXY)-3-CHLOROPHENYLAMINO)-3-CYANO-7-(TETRAHYDROFURAN-3-YL-OXY)QUINOLIN-6-YL)-4-(DIMETHYLAMINO)-BUT-2-ENAMIDE] | 77% | 82% | 1100 nM | 119 nM | 440 nM | 760 nM | – | – |
| CN(C)C/C=C/C(=O)Nc1cc2c(Nc3ccc(OCc4ccccn4)c(Cl)c3)c(C#N)cnc2cc1OC1CCOC1 (stereo not shown) [Example 3, (E)-N-(4-(3-CHLORO-4-(PYRIDIN-2-YL-METHOXY)PHENYLAMINO)-3-CYANO-7-(TETRAHYDROFURAN-3-YL-OXY)QUINOLIN-6-YL)-4-(DIMETHYLAMINO)-BUT-2-ENAMIDE HYDROCHLORIDE] | 85% | – | – | – | – | 819 nM | – | – |
| N#Cc1cnc2cc(OC3CCOC3)c(NC(=O)C=C3CCNCC3)cc2c1Nc1ccc(OCc2cccc(F)c2)c(Cl)c1 (stereo not shown) [Example 46, N-(4-(4-(3-FLUOROBENZYLOXY)-3-CHLOROPHENYLAMINO)-3-CYANO-7-(TETRAHYDROFURAN-3-YL-OXY)QUINOLIN-6-YL)-2-(PIPERIDIN-4-YLIDENE)ACETAMIDE] | – | – | – | – | – | – | 4000 nM | 25 nM |
